Read-outs that look alike come from different tables or passages of the source.
Tests used:
[1] = Solubility in methanol
From the text: Meanwhile, the solubility in methanol of the quinolinium derivative according to the present invention is illustrated in (a) of FIG. 6. […] The solid line in the graph is based on the known Van't Hoff thermodynamic equilibrium equation using an ideal solution.

[2] = Thermal properties by DSC and TGA at a scanning rate of 10° C./min (thermal weight-loss temperature Ti); format: physicochemical; details: for Ti (thermal weight-loss temperature), second number of the Tm/Ti cell: intercept of leading edge of weight loss with baseline
Procedure: As results of measurement of thermal properties of the quinolinium derivative according to the present invention using differential scanning calorimetry (DSC) and thermogravimetric analysis (TGA) at a scanning rate of 10° C./min, the thermal weight-loss temperature Ti was estimated as a temperature at the intercept of the leading edge of the weight loss by the baseline of TGA scans.

Ti (thermal weight-loss temperature), second number of the Tm/Ti cell ([2]; TGA, 10° C./min) | thermal stability of the crystal (FIG. 2) ([2]; TGA, 10° C./min) [°C] | Compound | solubility in methanol [1] [g/100 g methanol] | solubility in methanol as a reaction solvent ([1]; methanol, temperature not given) [g/100 g methanol] | thermal stability of the crystal (FIG. 2) [2]
265/291 °C |  | 2-(4-hydroxy-3-methoxystyryl)-1-methylquinolinium 4-methoxylbenzenesulfonate [HMQ-MBS] | 0.56 |  | 
250/250 °C | 260 | CN(C)c1ccc(C=Cc2cc[n+](C)cc2)cc1.Cc1ccc(S(=O)(=O)[O-])cc1 [DAST, N,N-dimethylamino-N′-methylstilbazolium 4-methylbenzenesulfonate, reference compound] |  |  | 
212/325 °C |  | CC1(C)CC(C=Cc2ccc(O)cc2)=CC(=C(C#N)C#N)C1 [OH1, 2-(3-(4-hydroxystyryl)-5,5-dimethylcyclohex-2-enylidene)malononitrile, reference compound] |  |  | 

More lines, now with the values behind:

Compound | Ti (thermal weight-loss temperature), second number of the Tm/Ti cell ([2]; TGA, 10° C./min) | thermal stability of the crystal (FIG. 2) ([2]; TGA, 10° C./min) [°C] | solubility in methanol [1] [g/100 g methanol] | solubility in methanol as a reaction solvent ([1]; methanol, temperature not given) [g/100 g methanol] | thermal stability of the crystal (FIG. 2) [2]
COc1cc(C=Cc2ccc3ccccc3[n+]2C)ccc1O.[I+] [HMQ-I, 2-(4-hydroxy-3-methoxystyryl)-1-methylquinolinium iodine] |  |  |  | 0.14 | 
COc1cc(C=Cc2ccc3ccccc3[n+]2C)ccc1O.Cc1ccc(S(=O)(=O)[O-])cc1 [HMQ-T, 2-(4-hydroxy-3-methoxystyryl)-1-methylquinolinium 4-methylbenzenesulfonate] | 273/297 °C |  | 0.89 |  | exceeding 290 °C

— patent US9057929B2, “Quinolinium single crystals for use in nonlinear optics” (AJOU UNIVERSITY INDUSTRY-ACADEMIC COOPERATION FOUNDATION, priority 2011, dated 2015)
